According to patent publication US20260217765A1, “NOVEL ANTIMICROBIAL PEPTIDE DESIGNED FROM DUCK-DERIVED ANTIMICROBIAL PEPTIDE ANDUSE THEREOF” (INDUSTRY-ACADEMIC COOPERATION FOUNDATION, CHOSUN UNIVERSITY, priority 2023, published 2026):
Peptide text beside a SMILES is read from it.

How the values were obtained:
[1] = tested on: Acinetobacter baumannii KCTC 2508; assay type: cell-based; conditions: various salt concentrations
Procedure: To determine whether the peptides prepared in <Example 1> retain antimicrobial activity under salt concentrations present in vivo, the minimal inhibitory concentration (MIC) of the peptides was measured under various salt concentrations. Specifically, among the bacterial strains listed in Table 2, Acinetobacter baumannii KCTC 2508 was cultured in suitable medium to the mid-log phase, then diluted to a concentration of 2×10^4 cells/100 μL and dispensed into a microtiter plate (Nunc, USA). The peptides prepared in <Example 1> were serially diluted two-fold under various salt concentration conditions and added to the wells, followed by incubation at 37° C. for 18 hours. Absorbance at 600 nm was measured using a microtiter plate reader (Merck ELISA reader, Germany) to determine the MIC values for each strain. The parent peptide dCATH was used as a control.

in vitro = assay type: cell-based; conditions: human, HaCaT keratinocyte cells, Cell Viability
Procedure: To evaluate the cytotoxicity of the peptides prepared in <Example 1>, toxicity was measured using a human keratinocyte cell line (HaCaT cell line, Dr. N. E. Fusenig, Heidelberg, Germany).
Specifically, HaCaT cells cultured in DMEM medium containing 10% fetal bovine serum (FBS) were seeded at a density of 2×10^5 cells/well into a microtiter plate and incubated for 24 hours. Then, peptides dCATH, dCATH-A1, dCATH-A2, dCATH-A3, dCATH-A4, dCATH-A5, dCATH-A6, and dCATH-A7 were added to each well at concentrations of 3.13, 6.25, 12.5, 25.0, 50.0, and 100.0 μM/well, followed by incubation for 24 hours in a 5% CO2 incubator. After 24 hours, 100 μL of a reaction solution containing 0.5 mg/mL MTT (Thiazolyl Blue Tetrazolium Bromide) dissolved in phosphate-buffered saline (PBS) was added to each well and reacted for 4 hours. After removing the supernatant, 200 μL of DMSO (dimethyl sulfoxide) was added to dissolve the formed MTT crystals, and absorbance at 570 nm was measured to determine cell viability.

[2] = tested on: Acinetobacter baumannii membrane; assay: Flow cytometry, propidium iodide, action on bacterial membrane; assay type: cell-based; conditions: peptide at twice the MIC, 37° C. 10 minutes
Procedure: To determine whether the peptides prepared in <Example 1> act on bacterial membranes, the parent peptide and the novel peptides dCATH-A1, dCATH-A2, dCATH-A3, dCATH-A4, dCATH-A5, dCATH-A6, and dCATH-A7 were analyzed using flow cytometry.
Specifically, Acinetobacter baumannii was treated with each peptide at twice the minimum inhibitory concentration (MIC), followed by incubation at 37° C. for 10 minutes. The supernatant was then removed by centrifugation at 10,000 rpm, and the bacterial cells were stained with propidium iodide (PI) at a concentration of 10 μg/mL at 4° C. for 30 minutes. Unbound PI was removed by centrifugation, and 1 mL of phosphate-buffered saline (PBS) was added to disperse any cell clumps. The effect of the peptides on the bacterial membrane was then assessed using a Beckman flow cytometer.

[3] = tested on: Acinetobacter baumannii KCTC 2508; assay type: cell-based; conditions: KCTC 2508, 24 h
Procedure: (§1) Specifically, among the bacterial strains listed in Table 2, those known to form biofilms well (Acinetobacter baumannii KCTC 2508, Acinetobacter baumannii isolate 10, and isolate 14) were cultured in the appropriate media to the mid-log phase and diluted to a cell concentration of 5×10^4 cells/100 µL, followed by inoculation into microplates (SPL). Subsequently, the peptides prepared in <Example 1> were serially 10-fold diluted with 10 mM sodium phosphate buffer (pH 7.2), and 10 μL of each dilution was added to each well. The plates were then incubated at 37° C. for 24 hours. After completely removing the supernatant, the plates were fixed with 100% methanol for 15 minutes, stained with crystal violet staining solution for 1 hour, washed three times, and then the stain was solubilized with 95% ethanol. Absorbance was measured at 595 nm using a microplate reader to determine the MBIC values for each bacterial strain.

sheep red blood cells = assay type: cell-based
Procedure: To evaluate the cytotoxicity of the peptides prepared in <Example 1>, their hemolytic activity against red blood cells was measured. Hemolysis refers to the rupture of red blood cells with the release of hemoglobin into the surrounding fluid. The cytotoxicity of the novel peptides of the present disclosure was assessed by measuring their hemolytic activity against erythrocytes.
Specifically, sheep red blood cells were diluted with PBS (pH 7.0) to a final concentration of 8%. The peptides dCATH, dCATH-A1, dCATH-A2, dCATH-A3, dCATH-A4, dCATH-A5, dCATH-A6, and dCATH-A7 were each added to the wells at concentrations of 3.13, 6.25, 12.5, 25.0, 50.0, and 100.0 μM/well and reacted at 37° C. for 1 hour. Thereafter, the samples were centrifuged at 1, 000×g, and the absorbance of hemoglobin in the supernatant was measured at 414 nm. As a control for complete cell lysis, 1% Triton X-100 (Sigma, USA) was used and incubated under the same conditions. The absorbance of this sample was set to represent 100% hemolysis, and hemolytic activity (%) for each peptide was calculated using the following Equation 1.
In the above equation, Absorbance A is the absorbance at 414 nm of the reaction solution treated with each peptide, Absorbance B is the absorbance at 414 nm of the PBS-treated reaction solution, and Absorbance C is the absorbance at 414 nm of the reaction solution treated with 1% Triton X-100.

[4] = tested on: Acinetobacter baumannii_isolate 14; assay type: cell-based, Acinetobacter baumannii; conditions: isolate 14, 24 h
Procedure: as §1

[5] = tested on: Acinetobacter baumannii_isolate 10; assay type: cell-based, Acinetobacter baumannii; conditions: isolate 10, 24 h
Procedure: as §1

plasmid DNA (pRSETB) = assay: Binding to bacterial DNA, agarose gel electrophoresis; conditions: 260 ng plasmid DNA, DNA/peptide ratios 1:1 to 1:4, 37° C. 10 minutes
Procedure: Accordingly, to further elucidate the mechanism by which these novel peptides exert antimicrobial activity, it was examined whether the novel peptides dCATH-A6 and dCATH-A7 bind to intracellular bacterial DNA using electrophoresis.
Specifically, 260 ng of plasmid DNA (pRSETB) was reacted with each peptide at various ratios (lanes 1 through […] represent DNA only, 1:1, 1:2, 1:3, and 1:4 DNA/peptide ratios, respectively) at 37° C. for 10 minutes. The samples were then subjected to electrophoresis on a 1% agarose gel, stained with ethidium bromide (EtBr), and visualized under UV light.

Row | antimicrobial activity (MIC) under salt conditions compared to the parent peptide dCATH [1] | binding to DNA (electrophoresis) (plasmid DNA (pRSETB)) | Structure (SMILES) | viability at 24 h, 3.13 µM (in vitro) [%] | viability at 24 h, 6.25 µM (in vitro) [%] | viability at 24 h, 12.5 µM (in vitro) [%] | viability at 24 h, 25 µM (in vitro) [%] | viability at 24 h, 50 µM (in vitro) [%] | viability at 24 h, 100 µM (in vitro) [%] | membrane damage in Acinetobacter baumannii (shift in PI fluorescence signal) [2] | MBIC [3] [µM] | hemolytic activity at concentrations corresponding to antimicrobial activity (sheep red blood cells) | MBIC [4] [µM] | MBIC [5] [µM]
1 | lower MIC values than the control | did bind to DNA | CC[C@H](C)[C@H](NC(=O)[C@H](C)NC(=O)[C@H](CCCCN)NC(=O)[C@H](CCCCN)NC(=O)[C@@H](NC(=O)[C@H](CC(C)C)NC(=O)[C@H](CCC(N)=O)NC(=O)[C@H](C)NC(=O)[C@H](C)NC(=O)[C@H](CCCNC(=N)N)NC(=O)[C@@H](N)CCCCN)C(C)C)C(=O)N[C@@H](CCCCN)C(=O)N[C@@H](CCCCN)C(=O)N[C@@H](Cc1ccc(O)cc1)C(=O)N[C@@H](CCCNC(=N)N)C(=O)N[C@@H](C)C(=O)N[C@@H](Cc1c[nH]c2ccccc12)C(=O)N[C@@H](CCCCN)C(N)=O [dCATH-A7, KRAAQLVKKAIKKYRAWK] (H-KRAAQLVKKAIKKYRAWK-NH2; N-terminus assumed) | 98 | 99.2 | 100 | 100 | 100 | 98.4 | no damage to the bacterial membrane | 2 | no hemolytic activity | 1 | 2
2 | lower MIC values than the control | did bind to DNA | CC[C@H](C)[C@H](NC(=O)[C@H](C)NC(=O)[C@H](CCCCN)NC(=O)[C@H](CCCCN)NC(=O)[C@@H](NC(=O)[C@H](CC(C)C)NC(=O)[C@H](CCC(N)=O)NC(=O)[C@H](C)NC(=O)[C@H](C)NC(=O)[C@H](CCCNC(=N)N)NC(=O)[C@@H](N)CCCCN)C(C)C)C(=O)N[C@@H](CCCCN)C(=O)N[C@@H](CCCCN)C(=O)N[C@@H](Cc1ccc(O)cc1)C(=O)N[C@@H](CCCNC(=N)N)C(=O)N[C@@H](C)C(=O)N[C@@H](Cc1c[nH]c2ccccc12)C(=O)N[C@@H](CCCCN)C(=O)N[C@@H](CCCNC(=N)N)C(=O)N[C@@H](CCCNC(=N)N)C(N)=O [dCATH-A6] (H-KRAAQLVKKAIKKYRAWKRR-NH2; N-terminus assumed) | 98.9 | 100 | 94.7 | 98 | 97.8 | 92 | no damage to the bacterial membrane | 2 | no hemolytic activity | 2 | 2
